Literature values in US11969522B2, “Use of immune modulators to improve nerve regeneration” (The Board of Regents of the University of Texas System, priority 2019, dated 2024).

How the values were obtained:
[1] = tested on: hematopoietic stem cells; settings: animal and human studies
[2] = tested on: CXCR4; settings: chronic exposure, rhesus macaques

Compound | hematopoietic stem cell mobilization [1] | T lymphocyte CXCR4 expression on both CD4+ and CD8+ T lymphocytes [2]
c1cc(CN2CCCNCCNCCCNCC2)ccc1CN1CCCNCCNCCCNCC1 [Plerixafor] | very efficient inducer of hematopoietic stem cell mobilization | –
CCCCCc1cc(O)c2c(c1)OC(C)(C)[C@@H]1CCC(C)=C[C@@H]21 [THC] | – | increase
